The subject of data set [1] is P2Y2R. The note with it: cited from earlier work.
The target of data set [2] is human P2Y2 receptor (Homo sapiens, UniProt P41231). Description: Increase in [Ca2+]i in 1321N1 astrocytoma cells expressing P2Y2 receptor. The format is cell-based.
The test system of data set [3] is ecto-5′-nucleotidases. As to conditions: muscle strip preparations, 60 min incubation ref 21; cited from earlier work.
For data set [4], the target named is turkey P2Y1 receptor (Meleagris gallopavo, UniProt P49652). Format: cell-based. The note with it: 1321N1 cell transfectants.
Sequence of turkey P2Y1 receptor (P49652 whole entry): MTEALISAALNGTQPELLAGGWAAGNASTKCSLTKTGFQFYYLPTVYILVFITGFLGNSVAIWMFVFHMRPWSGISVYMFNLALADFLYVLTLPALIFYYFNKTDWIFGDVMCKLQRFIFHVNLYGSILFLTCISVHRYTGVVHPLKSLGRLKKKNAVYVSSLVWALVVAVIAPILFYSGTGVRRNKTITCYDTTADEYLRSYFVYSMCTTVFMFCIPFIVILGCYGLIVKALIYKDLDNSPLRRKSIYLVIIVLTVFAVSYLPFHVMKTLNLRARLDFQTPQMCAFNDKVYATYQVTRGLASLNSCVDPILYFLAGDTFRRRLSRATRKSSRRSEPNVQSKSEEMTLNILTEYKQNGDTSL
The target of data set [5] is rat P2Y6 receptor (Rattus norvegicus, UniProt Q63371). Description: Increase in [Ca2+]i in 1321N1 astrocytoma cells expressing P2Y6 receptor. The format is cell-based.
Sequence of rat P2Y6 receptor (Q63371 whole entry): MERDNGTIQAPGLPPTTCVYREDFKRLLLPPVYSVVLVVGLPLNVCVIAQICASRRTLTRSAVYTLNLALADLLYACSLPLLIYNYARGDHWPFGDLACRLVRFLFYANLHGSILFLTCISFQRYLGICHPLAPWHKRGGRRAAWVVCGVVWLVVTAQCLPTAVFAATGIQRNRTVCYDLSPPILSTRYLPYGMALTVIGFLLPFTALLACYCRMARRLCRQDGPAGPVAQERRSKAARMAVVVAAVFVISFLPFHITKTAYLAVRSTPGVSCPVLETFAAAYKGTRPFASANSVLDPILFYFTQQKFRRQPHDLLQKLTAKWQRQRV
For data set [6], the target named is T1, human NTPDase8 (Homo sapiens, UniProt Q5MY95).
T1 sequence (Q5MY95 1-495): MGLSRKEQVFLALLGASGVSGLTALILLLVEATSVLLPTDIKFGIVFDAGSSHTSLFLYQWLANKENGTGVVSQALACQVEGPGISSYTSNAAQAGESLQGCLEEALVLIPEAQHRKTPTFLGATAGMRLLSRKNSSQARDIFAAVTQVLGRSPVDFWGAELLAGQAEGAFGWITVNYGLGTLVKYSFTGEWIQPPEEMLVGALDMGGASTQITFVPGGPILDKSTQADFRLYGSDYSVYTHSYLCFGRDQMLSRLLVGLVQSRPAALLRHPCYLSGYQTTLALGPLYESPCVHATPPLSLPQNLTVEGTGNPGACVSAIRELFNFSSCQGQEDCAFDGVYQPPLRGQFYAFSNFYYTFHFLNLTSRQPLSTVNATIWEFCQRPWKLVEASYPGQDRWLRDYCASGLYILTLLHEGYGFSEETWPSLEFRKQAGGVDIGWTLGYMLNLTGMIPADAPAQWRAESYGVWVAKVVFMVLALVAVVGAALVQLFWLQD
Description: Hydrolysis by NTPDase8. The format is biochemical. The note with it: 100 μM substrate; relative to ATP hydrolysis (100%).

Data set [7] can be described thus: pKa and degree of ionization of phosphate/phosphonate. The format is physicochemical. As to conditions: physiological conditions, pH 7.4.
The target in data set [8] is T2, human NTPDase3 (Homo sapiens, UniProt O75355).
T2 sequence (O75355 1-529): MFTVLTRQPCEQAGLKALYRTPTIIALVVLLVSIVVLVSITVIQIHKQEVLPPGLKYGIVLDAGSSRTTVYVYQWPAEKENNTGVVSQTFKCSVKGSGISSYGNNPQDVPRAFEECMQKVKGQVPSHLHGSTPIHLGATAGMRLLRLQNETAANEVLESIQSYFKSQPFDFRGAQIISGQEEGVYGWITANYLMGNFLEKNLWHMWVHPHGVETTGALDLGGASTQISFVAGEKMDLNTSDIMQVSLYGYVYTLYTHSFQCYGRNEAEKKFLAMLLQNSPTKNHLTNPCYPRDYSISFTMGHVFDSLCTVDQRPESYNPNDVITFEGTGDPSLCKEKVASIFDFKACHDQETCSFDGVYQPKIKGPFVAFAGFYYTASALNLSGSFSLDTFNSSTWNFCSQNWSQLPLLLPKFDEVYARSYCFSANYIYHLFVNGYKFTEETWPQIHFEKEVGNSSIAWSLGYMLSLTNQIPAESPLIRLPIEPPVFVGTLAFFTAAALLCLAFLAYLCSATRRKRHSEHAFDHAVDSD
Description: Hydrolysis by NTPDase3. As to conditions: 100 μM substrate; relative to ATP hydrolysis (100%). The format is biochemical.

A short description of data set [9]: Chemical hydrolysis under gastric juice-like conditions. Format: physicochemical. The note with it: pH 1.4, 37 °C.
The target in data set [10] is human P2Y4 receptor (Homo sapiens, UniProt P51582). Description: Increase in [Ca2+]i in 1321N1 astrocytoma cells expressing P2Y4 receptor. Format: cell-based.
Sequence of human P2Y4 receptor (P51582 whole entry): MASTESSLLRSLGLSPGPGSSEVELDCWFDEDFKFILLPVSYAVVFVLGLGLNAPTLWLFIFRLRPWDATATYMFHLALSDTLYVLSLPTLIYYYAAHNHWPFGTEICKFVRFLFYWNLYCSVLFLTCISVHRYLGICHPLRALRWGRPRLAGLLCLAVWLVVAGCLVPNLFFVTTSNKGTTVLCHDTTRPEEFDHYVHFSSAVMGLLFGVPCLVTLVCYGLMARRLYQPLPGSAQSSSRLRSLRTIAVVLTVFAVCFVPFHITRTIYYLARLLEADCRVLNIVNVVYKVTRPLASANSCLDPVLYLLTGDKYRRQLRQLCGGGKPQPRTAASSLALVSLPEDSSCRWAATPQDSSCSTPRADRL
Data set [11] can be described thus: Stability in human blood serum, Method A. The format is in vitro ADME. The note with it: half-life vs ATP.
The target in data set [12] is T3, human NTPDase1 (Homo sapiens, UniProt P49961).
T3 sequence (P49961 1-510): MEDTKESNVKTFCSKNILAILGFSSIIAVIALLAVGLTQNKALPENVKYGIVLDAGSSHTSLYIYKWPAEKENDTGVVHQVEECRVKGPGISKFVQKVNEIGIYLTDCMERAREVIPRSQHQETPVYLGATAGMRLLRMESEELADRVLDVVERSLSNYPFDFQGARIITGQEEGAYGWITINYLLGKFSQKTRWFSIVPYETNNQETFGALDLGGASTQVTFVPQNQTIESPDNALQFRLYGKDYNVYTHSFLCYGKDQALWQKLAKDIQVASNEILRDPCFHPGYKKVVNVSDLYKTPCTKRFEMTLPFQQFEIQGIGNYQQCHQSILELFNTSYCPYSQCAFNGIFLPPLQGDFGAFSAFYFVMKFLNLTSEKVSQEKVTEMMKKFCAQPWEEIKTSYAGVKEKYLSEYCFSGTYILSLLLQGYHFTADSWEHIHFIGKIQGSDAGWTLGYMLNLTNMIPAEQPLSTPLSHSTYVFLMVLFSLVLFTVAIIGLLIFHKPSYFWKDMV
Description: Hydrolysis by NTPDase1. The format is biochemical. The note with it: 100 μM substrate; relative to ATP hydrolysis (100%).

Data set [13] has as its system P2Y1R. The note with it: cited from earlier work.
In data set [14] the test system is P2X2/3Rs. The note with it: cited from earlier work.
Data set [15] has as its system P2X1R. The note with it: cited from earlier work.
Data set [16] deals with 1321N1 astrocytoma and C6 glioma cells. The note with it: via NPPs and CD73 ref 39; cited from earlier work.
The test system of data set [17] is perfused rat pancreas. As to conditions: perfused rat pancreas ref 31, cited from earlier work.
For data set [18] the following is noted: physiological pH ref 30; cited from earlier work.
For data set [19] the following is noted: pH 1.4, 37 °C ref 30; cited from earlier work.

Usually EC50 stands for the concentration that produces a half-maximal response.

Some results are limits rather than exact numbers.

Sequence of human P2Y2 receptor (P41231 whole entry): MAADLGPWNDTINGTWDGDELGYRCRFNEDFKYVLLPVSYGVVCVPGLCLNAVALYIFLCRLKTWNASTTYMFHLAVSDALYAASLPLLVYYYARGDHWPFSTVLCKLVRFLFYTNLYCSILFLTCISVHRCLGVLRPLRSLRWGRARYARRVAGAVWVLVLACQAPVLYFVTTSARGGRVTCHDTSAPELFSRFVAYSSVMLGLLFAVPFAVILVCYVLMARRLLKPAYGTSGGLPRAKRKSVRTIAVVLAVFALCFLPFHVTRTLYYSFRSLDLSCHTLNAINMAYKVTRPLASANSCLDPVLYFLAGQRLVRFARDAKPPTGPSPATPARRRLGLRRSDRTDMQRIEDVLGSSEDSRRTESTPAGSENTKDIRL

With `BP(=O)(OC[C@H]1O[C@@H](n2cnc3c(N)nc(Cl)nc32)[C@H](O)[C@@H]1O)OP(=O)(O)OP(=O)(O)O` (stereo partly drawn) [2-Cl–ATP-α-B, reference compound], in data set [1], the “activity at P2Y2R” value is recorded as “very weak agonists”.
As for `CSc1nc(N)c2ncn([C@@H]3O[C@H](COP(=O)(O)OP(=O)(O)CP(=O)(O)O)[C@@H](O)[C@H]3O)c2n1` [compound 2, 2-MeS–adenosine-5′-O-triphosphate-β,γ-CH2], the EC50 in [2], in data set [5] and in [10] was > 100 µM in each case. The “agonist activity at P2Y2R” value in [2] (1321N1 cell transfectants) is reported as “inactivity”. In addition, the “degradation by ecto-5′-nucleotidases” value in data set [3] was “no degradation”. Besides, in data set [4], the “agonist activity at P2Y1R” value is reported as “potent P2Y1R agonists”. The “Relative activity of NTPDase8” value in data set [6] is on record as 7–8%. For the same compound, the fraction ionized in data set [7] is reported as 9%. The “Relative activity of NTPDase3” value in data set [8] is 7–8%. Further, the “improvement of chemical stability as compared to 1” value in [9] is reported as ~11 fold. Also, in data set [11], the “enhancement of the metabolic stability of ATP” value is given as ≥ 3.5 fold. For the same compound, the “Relative activity of NTPDase1” value in data set [12] is on record as 7–8%.
As to `Nc1ncnc2c1ncn2[C@@H]1O[C@H](COP(=O)(O)OP(=O)(O)CP(=O)(O)O)[C@@H](O)[C@H]1O` [β,γ-CH2–ATP], the “degradation by ecto-5′-nucleotidases” value in data set [3] is on record as “no degradation”. In data set [13], the “activation of P2Y1Rs” value was “did not activate”. Further, in data set [13] (responses elicited by 2-MeS–ADP ref 48), the “antagonism at P2Y1R” value is given as “weak competitive antagonist”. Besides, in data set [14], the “activity at P2X2/3Rs” value is given as “weak agonist”. In addition, in [15], the “activity at P2X1R” value is reported as “P2X1R agonist”. Moreover, in [16], the “metabolism in cells” value is “rapidly metabolized to adenosine”.
Turning to 2-MeS–ATP-α-B [compound 1], the “enhancement of insulin secretion as compared to basal secretion” value in [17] was “ninefold”. The EC50 in data set [17] (read-out: EC50 of insulin secretion) was 0.028 µM. For the same compound, the “t1/2 at physiological pH” value in data set [18] is given as 1395 h. Moreover, the “t1/2 of acidic hydrolysis” value in [19] is 5.9 h. Besides, the “activity at P2Y2R” value in data set [1] is “very weak agonists”.

The values are drawn from publication PMC4354951 (European journal of medicinal chemistry, 2008).
